Patent EP0639183B1, “NITROGEN OXIDES OF AZA- AND DIAZA-ANTHRACENEDIONE DERIVATIVES, THEIR PREPARATION AND THEIR USE AS ANTITUMOR AGENTS” (BOEHRINGER MANNHEIM ITALIA S.P.A., priority 1991, dated 1992)
Converted amounts (≈) assume the structure as drawn. “And” between values parts separate entries of the source, which are not always exact repeats. Equal entries are not always repeated. Where two headings read alike, the source gives them in different places.

Key:
murine L 1210 leukemia [1] = settings: cited from earlier work
murine L 1210 leukemia [2] = settings: cited from earlier work; for in vivo T/C: murine L 1210 leukemia
MURINE LEUKEMIA L1210 = test: L 1210 murine leukemia model in vivo (iv/iv 1,4,7); set-up: species or system CD2Fl mice
Protocol: The antitumor activity of representative compounds of this invention was evaluated also in the L 1210 murine leukemia model.
(§1) L 1210 leukemia cells were intravenously (iv) injected in CD2Fl mice and treatment was initiated approximately 24 hours after tumor transplantation. Dosages of the drugs were administered iv according to preestablished protocols, usually at 3-day intervals. The studies were done over a 60-day period and the date of death for each animal was recorded. The % T/C was determined using the median survival time (MST) for each group according to the formula % T/C = [(MST treated)/(MST control)] x 100. [formula]

P 388 MURINE LEUKEMIA = test: P 388 murine leukemia model in vivo (iv/iv 1,4,7); set-up: species or system CD2Fl mice
Protocol: Studies of the biological activity "in vivo" of representative compounds of the invention were performed using the P 388 and L 1210 murine leukemia models.
as §1, with “P 388 Murine” for “L 1210”, “mice. Treatment” for “mice and treatment”, “transplantation and dosages” for “transplantation. Dosages”, “drug” for “drugs”, “60 day” for “60-day”

Lovo/DX = test: in vitro cytotoxic activity, MTT assay, resistant subline Lovo/DX; type: cell-based, human; settings: for resistance index RI (ratio of the IC50 for the resistant cell line to the IC50 for the sensitive cell line): Lovo/DX versus Lovo
Protocol: (§2) The evaluation of the "in vitro" cytotoxic activity of the compounds of the invention was performed using a human colon adenocarcinoma cell line (Lovo) isolated from a metastatic nodule and a subline with aquired resistance to a number of antitumor agents, among which doxorubicin, VP-16 and vincristine. […] Cancer, (1986), 54, 515). The compounds were tested according to the MTT assay (Mosman, T. "Rapid Colorimetric assay for cellular growth and survival: application to proliferation and cytotoxicity assay", J. Immunol. Methods, (1983), 65, 55-63; Green. L.M., "Rapid Colorimetric assay for cell viability; application to the quantitation of cytotoxic and growth inhibitory lymphokines", J. Immunol. Methods, (1984), 70, 257-268) in comparison with ametantrone and doxorubicin.

[3] = tested on: human colon adenocarcinoma cell line (Lovo); test: in vitro cytotoxic activity, MTT assay, Lovo cell line; type: cell-based; settings: 144 hours drug-exposure
Protocol: as §2

[4] = in animals; cited from earlier work
[5] = L1210, iv on days 1,4,7, Dose 2 mg/kg/day
[6] = L1210, iv on days 1,4,7, Dose 3 mg/kg/day
[7] = P 388, iv on days 1,4,7, Dose 2 mg/kg/day
[8] = P 388, iv on days 1,4,7, Dose 3 mg/kg/day
[9] = P 388, iv on days 1,4,7, Dose 4 mg/kg/day
[10] = L1210, iv on days 1,4,7, Dose 40 mg/kg/day
[11] = L1210, iv on days 1,4,7, Dose 60 mg/kg/day
[12] = P 388, iv on days 1,4,7, Dose 18 mg/kg/day
[13] = P 388, iv on days 1,4,7, Dose 27 mg/kg/day

In the case of `CN(C)CCNc1ccc(NCCN(C)C)c2c1C(=O)c1cccnc1C2=O` [Compound 5a], the “in vitro ID50” value (murine L 1210 leukemia [1]) is listed as 0.16 µg/mL, the “antitumor activity in vivo (in words)” value (murine L 1210 leukemia [2]; as reported in table II) is listed as “inactive in vivo” and the “in vivo T/C” value (murine L 1210 leukemia [2]; Dose 50 mg/kg) is listed as 130.

With `O=C1c2c(O)ccc(O)c2C(=O)c2c(NCCNCCO)ccc(NCCNCCO)c21` [MITOX, 5,8-dihydroxy-1,4-bis([2-(2-hydroxyethylamino)ethyl]amino]anthracene-9,10-dione] the LTS (MURINE LEUKEMIA L1210; [5]) was 0/8, the “T/C% (range)” value (MURINE LEUKEMIA L1210; [5]) was 208% and the “TOX (Number of toxic deaths/total number of mice)” value (MURINE LEUKEMIA L1210; [5]) was 0/8. For the same compound, the LTS (MURINE LEUKEMIA L1210; [6]) was 0/8, the “T/C% (range)” value (MURINE LEUKEMIA L1210; [6]) was 216% and the “TOX (Number of toxic deaths/total number of mice)” value (MURINE LEUKEMIA L1210; [6]) was 0/8. The “T/C% (range)” value (P 388 MURINE LEUKEMIA; [7]) was 171(154-212) %, the “TOX (Number of toxic deaths/total number of mice)” value (P 388 MURINE LEUKEMIA; [7]) was 0/50 and the “T/C% (range)” value (P 388 MURINE LEUKEMIA; [8]) was 185(167-217) %. The “TOX (Number of toxic deaths/total number of mice)” value (P 388 MURINE LEUKEMIA; [8]) was 12/84, the “T/C% (range)” value (P 388 MURINE LEUKEMIA; [9]) was 118(89-133) % and the “TOX (Number of toxic deaths/total number of mice)” value (P 388 MURINE LEUKEMIA; [9]) was 20/24.

In the case of `NCCNc1ccc(NCCN)c2c1C(=O)c1cc[n+]([O-])cc1C2=O.O=C(O)/C=C\C(=O)O.O=C(O)/C=C\C(=O)O` [Compound 7b, 6,9-bis[N-(2-aminoethyl)amino]benzo[g]isoquinoline-5,10-dione-2-oxide dimaleate], the LTS (MURINE LEUKEMIA L1210; [10]) is reported as 0/8, the “T/C% (range)” value (MURINE LEUKEMIA L1210; [10]) is reported as 266% and the “TOX (Number of toxic deaths/total number of mice)” value (MURINE LEUKEMIA L1210; [10]) is reported as 0/8. The LTS (MURINE LEUKEMIA L1210; [11]) was 0/10, the “T/C% (range)” value (MURINE LEUKEMIA L1210; [11]) was 333% and the “TOX (Number of toxic deaths/total number of mice)” value (MURINE LEUKEMIA L1210; [11]) was 0/10. The “T/C% (range)” value (P 388 MURINE LEUKEMIA; [12]) was 122%, the “TOX (Number of toxic deaths/total number of mice)” value (P 388 MURINE LEUKEMIA; [12]) was 0/8 and the “T/C% (range)” value (P 388 MURINE LEUKEMIA; [13]) was 133%. The “TOX (Number of toxic deaths/total number of mice)” value (P 388 MURINE LEUKEMIA; [13]) was 0/8, the “TOX (Number of toxic deaths/total number of mice)” value (P 388 MURINE LEUKEMIA; P 388, iv on days 1,4,7, Dose 40 mg/kg/day) was 1/24 and the “T/C% (range)” value (P 388 MURINE LEUKEMIA; P 388, iv on days 1,4,7, Dose 40 mg/kg/day, dimaleate, 40 mg/kg/day) was 144% and 166% and 194%. The “TOX (Number of toxic deaths/total number of mice)” value (P 388 MURINE LEUKEMIA; P 388, iv on days 1,4,7, Dose 60 mg/kg/day) was 0/17, the “T/C% (range)” value (P 388 MURINE LEUKEMIA; P 388, iv on days 1,4,7, Dose 60 mg/kg/day, dimaleate, 60 mg/kg/day) was 200% and 225% and the “TOX (Number of toxic deaths/total number of mice)” value (P 388 MURINE LEUKEMIA; P 388, iv on days 1,4,7, Dose 80 mg/kg/day) was 4/17. The “T/C% (range)” value (P 388 MURINE LEUKEMIA; P 388, iv on days 1,4,7, Dose 80 mg/kg/day, dimaleate, 80 mg/kg/day) was 211% and 262%.

In the case of `O=C1c2ccccc2C(=O)c2c(NCCNCCO)ccc(NCCNCCO)c21` [ametantrone, 1,4-bis{[2-(2-hydroxyethylamino)ethyl]amino]anthracene-9,10-dione], the “resistance index RI (ratio of the IC50 for the resistant cell line to the IC50 for the sensitive cell line)” value (Lovo/DX) is listed as 101.2, the IC50 [3] is listed as 0.33 ± 0.1 µg/mL (≈ 0.8 µM) and the “less potent and cardiotoxic than mitoxantrone” value [4] is listed as “about 10 fold”.

In the case of `COc1cccc2c1C(=O)c1c(O)c3c(c(O)c1C2=O)C[C@@](O)(C(=O)CO)C[C@@H]3O[C@H]1C[C@H](N)[C@H](O)[C@H](C)O1` [doxorubicin], the “resistance index RI (ratio of the IC50 for the resistant cell line to the IC50 for the sensitive cell line)” value (Lovo/DX) is reported as 142.7.

With `CN(C)CCNc1ccc(NCCN(C)C)c2c1C(=O)c1cc[n+]([O-])cc1C2=O` [Compound 7a, 6,9-bis[N-(2-dimethylaminoethyl)amino]benzo[g]isoquinoline-5,10-dione-2-oxide] the IC50 (Lovo/DX; Homo sapiens, Lovo/DX resistant subline) was 2.68 µg/mL (≈ 6.74 µM), the “resistance index RI (ratio of the IC50 for the resistant cell line to the IC50 for the sensitive cell line)” value (Lovo/DX) was 6.1 and the IC50 [3] was 0.44 µg/mL (≈ 1.11 µM).

In the case of `CN(C)CCNc1ccc(NCCN(C)C)c2c1C(=O)c1ccccc1C2=O` [Compound 6a], the “in vitro ID50” value (murine L 1210 leukemia [1]) is given as 0.08 µg/mL and the “in vivo T/C” value (murine L 1210 leukemia [2]; Dose 30 mg/kg) is given as 150.

For `CCN(CC)CCNc1ccc(NCCN(CC)CC)c2c1C(=O)c1cccnc1C2=O` [Compound 5b], the “in vitro ID50” value (murine L 1210 leukemia [1]) is given as 2.4 µg/mL and the “in vivo T/C” value (murine L 1210 leukemia [2]; Dose 100 mg/kg) is given as “toxic”.

In the case of `CCN(CC)CCNc1ccc(NCCN(CC)CC)c2c1C(=O)c1ccccc1C2=O` [Compound 6b], the “in vitro ID50” value (murine L 1210 leukemia [1]) is given as 0.30 µg/mL.

For `CN(C)CCCNc1ccc(NCCCN(C)C)c2c1C(=O)c1cccnc1C2=O` [Compound 5c], the “in vitro ID50” value (murine L 1210 leukemia [1]) is listed as 1.7 µg/mL.
